# In patent EP4722219A1 (Gan & Lee Pharmaceuticals Co., Ltd., priority 2023, dated 2024):
# Key:
# Assay type in all cases: cell-based
# ERα [1] = molecular target: T1, ERα (Homo sapiens, UniProt P03372); assay: ERα degradation in MCF-7 cells (Western blot); design: host or cells: MCF-7; settings: 4 hours
# T1 sequence (P03372 1-595): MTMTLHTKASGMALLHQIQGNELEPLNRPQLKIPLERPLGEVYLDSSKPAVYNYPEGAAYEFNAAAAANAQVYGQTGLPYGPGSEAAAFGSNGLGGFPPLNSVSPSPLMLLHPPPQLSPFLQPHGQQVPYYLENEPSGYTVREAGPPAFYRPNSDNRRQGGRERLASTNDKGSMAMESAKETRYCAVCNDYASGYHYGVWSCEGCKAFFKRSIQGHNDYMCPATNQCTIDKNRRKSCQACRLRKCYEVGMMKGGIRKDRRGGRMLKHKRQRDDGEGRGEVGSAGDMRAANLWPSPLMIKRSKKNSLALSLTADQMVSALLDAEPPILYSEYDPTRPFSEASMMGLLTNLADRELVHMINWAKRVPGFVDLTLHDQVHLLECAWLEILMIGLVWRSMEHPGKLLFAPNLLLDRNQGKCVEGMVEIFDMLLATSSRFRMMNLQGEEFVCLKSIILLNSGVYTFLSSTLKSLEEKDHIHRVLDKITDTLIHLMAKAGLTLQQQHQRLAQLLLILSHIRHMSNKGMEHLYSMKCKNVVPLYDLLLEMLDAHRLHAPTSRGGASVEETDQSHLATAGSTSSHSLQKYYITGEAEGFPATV
# Outline: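 MCF-7 cells treated 4 h at 37 °C with compound at 0.15–1000 nM final. ERα in lysates measured by Western blot (20 µg protein), normalized to an internal reference protein; degradation rate calculated against control.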
# T-47D cells = assay: Inhibition of cell proliferation in T-47D cells (CCK-8); settings: 6 days treatment, CCK-8 cell viability
# Outline: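 T-47D cells (3,000/well) in RPMI-1640 with 10% FBS were exposed to a concentration range of PROTAC compounds for 6 days at 37 °C, 5% CO2. Viability read by CCK-8; IC50 fitted from inhibition rate.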
# MCF-7 cells = assay: Inhibition of cell proliferation in MCF-7 cells (CCK-8); settings: MCF-7 cell proliferation, 6 days treatment
# Outline: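 MCF-7 cells, 800 per well in DMEM plus 10% FBS, exposed to graded PROTAC concentrations for 6 days at 37 °C, 5% CO2. Viability by CCK-8; IC50 fitted from inhibition rates.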
# ERα [2] = molecular target: T1, ERα; assay: ERα degradation in T-47D cells (Western blot); settings: 4 hours
# Outline: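 T-47D cells at 3×10^5 cells/well were exposed to compound (final 0.15-1000 nM, DMSO) for 4 hours at 37°C and then lysed in RIPA. ERα was measured by Western blot (20 µg protein) with infrared imaging. The degradation rate was calculated from ERα/internal-reference grayscale ratios relative to control.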
IC50 (T-47D cells),IC50 (MCF-7 cells),Molecule,Degradation rate of ERα in MCF-7 cells (%) (ERα [1]; 1nM),Degradation rate of ERα in MCF-7 cells (%) (ERα [1]; 10nM),"IC50 (T-47D cells; Homo sapiens, T47D, 144 h)","IC50 (MCF-7 cells; Homo sapiens, MCF7, 144 h)",Degradation rate of ERα in T-47D cells (%) (ERα [2]; 1nM),Degradation rate of ERα in T-47D cells (%) (ERα [2]; 10nM)
,,"Cn1c(=O)n(C2CCC(=O)NC2=O)c2cc3c(cc21)OC1(CC3)CCN(C[C@H]2CC[C@@H](OC3CCN(c4ccc([C@@H]5c6ccc(O)cc6CC[C@@H]5c5ccccc5)cc4)CC3)CC2)CC1 (stereo partly drawn) [ER-P-65, 3-(1'-(((1S,4S)-4-((1-(4-((1R,2S)-6-hydroxy-2-phenyl-1,2,3,4-tetrahydronaphthalen-1-yl)phenyl)piperidin-4-yl)oxy)cyclohexyl)methyl)-3-methyl-2-oxo-2,3,7,8-tetrahydro-1H-spiro[benzopyrano[6,7-d]imidazole-6,4'-piperidin]-1-yl)piperidine-2,6-dione]",21%,62%,7.34 nM,261 nM,20%,77%
,,"Cn1c(=O)n(C2CCC(=O)NC2=O)c2ccc3c(c21)C1(CCN(C[C@H]2CC[C@@H](OC4CCN(c5ccc([C@@H]6c7ccc(O)cc7CC[C@@H]6c6ccccc6)cc5)CC4)CC2)CC1)CO3 (stereo partly drawn) [ER-P-66, 3-(1'-(((1S,4s)-4-((1-(4-((1R,2S)-6-hydroxy-2-phenyl-1,2,3,4-tetrahydronaphthalen-1-yl)phenyl)piperidin-4-yl)oxy)cyclohexyl)methyl)-1-methyl-2-oxo-1,2-dihydro-3H,7H-spiro[benzofuro[4,5-d]imidazole-8,4'-piperidin]-3-yl)piperidine-2,6-dione]",6%,30%,14 nM,4100 nM,18%,49%
,,"O=C1CC[C@H](NC(=O)c2cc3c(cc2F)N2CCN(C[C@H]4CC[C@@H](OC5CCN(c6ccc([C@@H]7c8ccc(O)cc8CC[C@@H]7c7ccccc7)cc6)CC5)CC4)C[C@@H]2CO3)C(=O)N1 [ER-P-67, (R)-N-((S)-2,6-dioxopiperidin-3-yl)-9-fluoro-3-(((1S,4S)-4-((1-(4-((1R,2S)-6-hydroxy-2-phenyl-1,2,3,4-tetrahydronaphthalen-1-yl)phenyl)piperidin-4-yl)oxy)cyclohexyl)methyl)-1,2,3,4,4a,5-hexahydrobenzo[b]pyrazi no[1,2-d][1,4]oxazine-8-carboxamide]",28%,13%,92.5 nM,2990 nM,6%,20%
1.47 nM,8430 nM,"(S)-N-((S)-2,6-dioxopiperidin-3-yl)-3-(((1S,4R)-4-((1-(4-((1R,2S)-6-hydroxy-2-phenyl-1,2,3,4-tetrahydronaphthalen-1-yl)phenyl)piperidin-4-yl)oxy)cyclohexyl)methy l)-1,2,3,4,4a,5-hexahydrobenzo[b]pyrazi no[1,2-d][1,4]oxazine-8-carboxamide [ER-P-47]",21%,26%,,,-14%,25%
